Data as given in PMC9535710 (ACS Omega, 2022).

Columns and labels:
U251 (glioblastoma) = test: SRB cytotoxicity, U251 glioblastoma cells; format: cell-based, human; details: Homo sapiens, U-251, read-out: IC50 U251
K562 (leukemia) = test: SRB cytotoxicity, K562 leukemia cells; format: cell-based, human; details: Homo sapiens, K562, read-out: IC50 K562
HCT-15 (colon) = test: SRB cytotoxicity, HCT-15 colon cells; format: cell-based, human; details: Homo sapiens, HCT-15, read-out: IC50 HCT-15
SKLU-1 (lung) = test: SRB cytotoxicity, SKLU-1 lung cells; format: cell-based, human; details: Homo sapiens, SK-LU-1, read-out: IC50 SKLU-1
[1] = SRB cytotoxicity, K562 leukemia cells; format: cell-based, human; details: human, K562 leukemia cells
[2] = SRB cytotoxicity, HCT-15 colon cells; format: cell-based, human; details: human, HCT-15 colon tumor cells
[3] = SRB cytotoxicity, MCF-7 breast cells; format: cell-based; details: human, MCF-7 breast tumor cells
[4] = SRB cytotoxicity, SKLU-1 lung cells; format: cell-based, human; details: human, SKLU-1 lung tumor cells
[5] = SRB cytotoxicity, U251 glioblastoma cells; format: cell-based, human; details: human, U251 glioblastoma cells
[6] = SRB cytotoxicity, PC-3 prostate cells; format: cell-based; details: human, PC-3 prostate tumor cells

In the case of `COc1cc([C@@H]2c3cc4c(cc3[C@@H](O[C@@H]3O[C@@H]5CO[C@@H](C)O[C@H]5[C@H](O)[C@H]3O)[C@H]3COC(=O)[C@H]23)OCO4)cc(OC)c1O` [etoposide, reference compound], the IC50 (U251 (glioblastoma)) is reported as 2400 ± 200 nM, the IC50 (K562 (leukemia)) is reported as 2200 ± 700 nM and the IC50 (HCT-15 (colon)) is reported as 4800 ± 500 nM. The IC50 (SKLU-1 (lung)) was 2600 ± 300 nM.

For `CC(C)=CCC[C@@H](C)[C@@H]1CC[C@]2(C)C3=C(CC[C@@]12C)[C@@]1(C)CC[C@H](O)C(C)(C)[C@@H]1CC3` [euphol (2), eupha-8,24-dien-3β-ol], the inhibition at 50 μM [1] was 26.9%, the inhibition at 50 μM [2] was 2.18% and the inhibition at 50 μM [3] was 36.6%. For the same molecule, the inhibition at 50 μM [4] was 4.9%.

Work on `C=C(C)[C@@H]1CC[C@]2(C)CC[C@]3(C)[C@H](CC[C@@H]4[C@@]5(C)CC[C@H](O)C(C)(C)[C@@H]5CC[C@]43C)[C@@H]12` [lupeol (5), lupeol] yielded an inhibition at 50 μM [5] of 27.3%, an inhibition at 50 μM [6] of 50.7% and an inhibition at 50 μM [1] of 48.8%. For the same molecule, the inhibition at 50 μM [2] was 10.4%, the inhibition at 50 μM [3] was 22.3% and the inhibition at 50 μM [4] was 13%.
